# Laboratory results reported in patent publication US11919854B2, “P2RX7 modulators in therapy” (Centre national de la recherche scientifique, priority 2018, dated 2024).
# Legend:
# [1] = system: NCI panel of 60 tumor cell lines; experiment: Toxicity on NCI panel of 60 tumor cell lines; type: cell-based; conditions: HEK cell lines stably transfected with hP2RX7 or mP2RX7 and NCI panel of 60 human tumor cell lines
# Text: Toxicity of HEI_2333 and HEI_2336 was already tested on the NCI panel of 60 tumor cell lines (NCI 60-cell panel).
# B16-F10 cells = experiment: In vivo assay for immunogenic cell death (ICD), B16-F10; parameters: species or system mice; conditions: B16-F10 exposed to 3 mM ATP and 50 μM HEI3090, contralateral challenge
# Procedure: a-b. In vivo assay for the evaluation of HEI3090 as an inducer of immunogenic cell death.
# To induce B16-F10 death, cells were exposed to 3 mM ATP and 50 μM HEI3090 and 1.105 dying cells, or PBS as control, were injected sc in the right flank (n=4). 7 days later, 0.5.105 live B16-F10 cells were injected s.c. in the contralateral flank. (a). Curves shown mean of tumor growth in the contralateral site (b).
# The inventors performed dedicated experiment to test the hypothesis that HEI3090 may induce immunogenic cell death (ICD).
# human P2RX7 = molecular target: T1, human P2RX7 (Homo sapiens, UniProt Q99572); experiment: Calcium influx and large cation permeation by FACS, 15 min, HEK cells with human P2RX7, increasing doses of HEI3090; type: cell-based; conditions: increasing doses of HEI3090, 7.8 μM BzATP
# T1 construct: expressed in transfected cells; host or cells: HEK cells
# T1 sequence (Q99572 1-595): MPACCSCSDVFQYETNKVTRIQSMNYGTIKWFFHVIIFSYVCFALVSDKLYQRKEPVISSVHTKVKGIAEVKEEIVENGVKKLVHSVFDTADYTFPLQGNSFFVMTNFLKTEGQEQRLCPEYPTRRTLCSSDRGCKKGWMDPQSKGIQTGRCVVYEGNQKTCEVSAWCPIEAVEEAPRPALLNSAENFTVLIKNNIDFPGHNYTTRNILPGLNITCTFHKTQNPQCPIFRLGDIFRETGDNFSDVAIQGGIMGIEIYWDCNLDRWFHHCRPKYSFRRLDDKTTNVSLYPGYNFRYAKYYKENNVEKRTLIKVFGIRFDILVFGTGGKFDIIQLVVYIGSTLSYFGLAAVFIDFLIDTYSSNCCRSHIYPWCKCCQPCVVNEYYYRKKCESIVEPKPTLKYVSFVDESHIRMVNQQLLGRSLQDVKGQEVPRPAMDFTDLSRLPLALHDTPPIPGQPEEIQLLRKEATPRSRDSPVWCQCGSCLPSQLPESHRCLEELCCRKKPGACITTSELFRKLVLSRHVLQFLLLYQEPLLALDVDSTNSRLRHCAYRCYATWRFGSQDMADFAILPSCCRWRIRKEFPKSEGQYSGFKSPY
# Procedure: Calcium influx (Fluo-AM positive cells) and large cation permeation (Topro3 positive cells) were assayed by FACS 15 min after stimulation of HEK cells transfected with the human P2RX7 that were treated with increasing doses of HEI3090 in the presence of 7.8 μM BzATP.
# Complementary analyses were also performed to document the biological activity of HEI3090, the more soluble version of HEI2328, on both HEK cells expressing mouse P2RX7 (mP2RX7) (FIG. 14) or human P2RX7 (hP2RX7) (FIG. 15). BzATP or ATP stimulate channel activity, an event that occurred in the first minutes of P2RX7 stimulation. […] The same positive effect was observed on cells expressing human P2RX7 (FIG. 15).
compound,measurement,setting,value
"O=C(NCc1ccc(Cl)cc1Cl)[C@@H]1CCC(=O)N1C(=O)Nc1ccc(Cl)nc1 [HEI3090, (S)—N^1-(6-Chloropyridin-3-yl)-N^2-(2,4-dichlorobenzyl)-5-oxopyrrolidine-1,2-dicarboxamide]",toxicity in absence of the endogenous P2RX7 ligand (ATP),[1],non-toxic
same,induction of immunogenic cell death (ICD),B16-F10 cells,does not promote ICD
same,increase of Ca influx (Fluo-AM positive cells),human P2RX7,3 fold
same,increase of large cation influx (Topro3 positive cells),human P2RX7,3 fold
